Experimental data from patent US12692237B2, “Continuous method for preparing tricyanoimidazole” (UCHICAGO ARGONNE, LLC, priority 2022, dated 2026).

Tests used:
[1] = Solvent screening: solubility of DCI-NH2 slurried in acetonitrile plus various solvents; type: physicochemical; details: for Solubility, +100 uL solvent / Solubility, +200 uL water: +100 uL solvent
Experimental: Samples of DCI-NH2 (40 mg) were slurried in acetonitrile (0.25 ml) plus various solvents (0.05 ml).

[2] = as above; type: physicochemical; details: 40 mg in MeCN:water = 0.5:0.2 mL
[3] = 40 mg in acetonitrile 0.25 ml + NMP 0.05 ml
[4] = 40 mg in acetonitrile 0.25 ml + Nitromethane 0.05 ml
[5] = 40 mg in acetonitrile 0.25 ml + Propylene carbonate 0.05 ml
[6] = 40 mg in acetonitrile 0.25 ml + Sulfolane 0.05 ml

- Solubility ([1]; 40 mg in acetonitrile 0.25 ml + Diglyme 0.05 ml): soluble
- Solubility ([1]; 40 mg in acetonitrile 0.25 ml + Dmso 0.05 ml): soluble
- Solubility [1, 3]: partial
- Solubility, +100 uL solvent [1, 3]: soluble
- Solubility [1, 4]: No
- Solubility, +100 uL solvent [1, 4]: No
- Solubility, +200 uL water [1, 4]: No
- Solubility [1, 5]: No
- Solubility, +100 uL solvent [1, 5]: No
- Solubility, +200 uL water [1, 5]: soluble
- Solubility [1, 6]: No
- Solubility, +100 uL solvent [1, 6]: No
- Solubility, +200 uL water [1, 6]: soluble
- Solubility [2]: soluble
SMILES: N#Cc1nc(N)[nH]c1C#N [DCI-NH2, 2-amino-1H-imidazole-4,5-dicarbonitrile]
